Measurements reported in patent publication US20020094522A1, “Means and methods for monitoring non-nucleoside reverse transcriptase inhibitor antiretroviral therapy and guiding therapeutic decisions in the treatment of HIV/AIDS” (priority 2000, published 2002).
Where two headings read alike, the source gives them in different places.

What was measured:
Assay type in all cases: cell-based, HIV-1
[1] = tested on: RTV-964 (patient sample 98-964); assay: Phenotypic susceptibility assay, RTV-964; conditions: RTV-964, patient-derived pool
Experimental: (§1) Transfections were performed using a calcium-phosphate precipitation procedure. […] Cell lysates were assayed for luciferase activity (FIG. 3).
(§2) The drug inhibition curves are shown in (FIG. 3).
A resistance test vector was constructed as described in Example 1 from a patient sample designated 98-964. […] Isolation of viral RNA and RT/PCR was used to generate a patient derived segment that comprised viral sequence coding for all of PR and aa 1-313 of RT. The PDS was inserted into an indicator gene viral vector to generate a resistance test vector designated RTV-964. RTV-964 was then tested in a phenotypic assay to determine accurately and quantitatively the level of susceptibility to a panel of anti-retroviral drugs. […] An IC50 was determined for the resistance test vector pool for each drug tested. The pattern of susceptibility to all of the drugs tested was examined and compared to known patterns of susceptibility.

E138A-Y188L-RTV = assay: Phenotypic susceptibility assay, E138A-Y188L-RTV; conditions: site directed mutant
Excerpt: (§3) The resistance test vectors containing a functional luciferase gene cassette were constructed and host cells were transfected with the resistance test vector DNA. The resistant test vectors contained patient-derived reverse transcriptase and protease sequences that were either susceptible or resistant to the antiretroviral agents, such as nucleoside reverse transcriptase inhibitors, non-nucleoside reverse transcriptase inhibitors and protease inhibitors. The resistance test vector viral particles produced by transfecting the resistance test vector DNA into host cells, either in the presence or absence of protease inhibitors, were used to infect target host cells grown either in the absence of NRTI or NNRTI or in the presence of increasing concentrations of the drug. The amount of luciferase activity produced in infected target host cells in the presence of drug was compared to the amount of luciferase produced in infected target host cells in the absence of drug. […] The IC50 values were determined by plotting percent drug inhibition vs. log10 drug concentration.
(§4) Host cells were seeded in 10-cm-diameter dishes and were transfected several days after plating with resistance test vector plasmid DNA and the envelope expression vector. […] HIV capsid protein (p24) levels in the harvested cell culture media were determined by an EIA method as described by the manufacturer (SIAC; Frederick, Md.). […] The inhibitory effect of the drug was determined using the following equation: […]
The E138A mutation alone and in combination with Y188L was introduced into resistance test vectors using the megaprimer method for site-directed mutagenesis (Sakar and Sommar, Ibid.). Resistance test vectors containing the E138A mutation (E138A-RTV) or the E138 mutation along with the […] mutation (E138A-Y188L-RTV) were then tested using the phenotypic assay described earlier and the results were compared to those determined using a genetically defined resistance test vector that was wild type at positions 188 and 138.

[2] = tested on: RTV-1060 (patient sample 98-1060); assay: Phenotypic susceptibility assay, RTV-1060; conditions: RTV-1060, patient-derived pool
Experimental: as §1, §2
This patient had been previously treated with d4T […] , indinavir (a PRI and efavirenz (an NNRTI). A second resistance test vector was constructed as described in Example 1 from a patient sample designated 98-1060. This patient had been previously treated with d4T […]. indinavir (a PRI) and efavirnez (an NNRTI). Isolation of viral RNA and RT/PCR was used to generate a patient derived segment that comprised viral sequences coding for all of PR and aa 1-313 of RT. The PDS was inserted into an indicator gene viral vector to generate resistance test vectors designated RTV-644 and RTV-1060. RTV-644 and RTV-1060 were then tested in a phenotypic assay to determine accurately and quantitatively the level of susceptibility to a panel of anti-retroviral drugs. […] An IC50 was determined for the resistance test vector pool for each drug tested. The pattern of susceptiblity to all of the drugs tested was examined and compared to known patterns of susceptibility.

K101E-G190S-RTV = assay: Phenotypic susceptibility assay, K101E-G190S-RTV
Excerpt: (§5) The resistance test vectors containing a functional luciferase gene cassette were constructed and host cells were transfected with the resistance test vector DNA. The resistant test vectors contained patient-derived reverse transcriptase and protease sequences that were either susceptible or resistant to the antiretroviral agents, such as nucleoside reverse transcriptase inhibitors, non-nucleoside reverse transcriptase inhibitors and protease inhibitors. The resistance test vector viral particles produced by transfecting the resistance test vector DNA into host cells, either in the presence or absence of protease inhibitors, were used to infect target host cells grown either in the absence of NRTI or NNRTI or in the presence of increasing concentrations of the drug. The amount of luciferase activity produced in infected target host cells in the presence of drug was compared to the amount of luciferase produced in infected target host cells in the absence of drug. Drug resistance was measured as the amount of drug required to inhibit by 50% the luciferase activity detected in the absence of drug (inhibitory concentration 50%, IC50). The IC50 values were determined by plotting percent drug inhibition vs. log10 drug concentration.
Host cells were seeded in 10-cm-diameter dishes and were transfected several days after plating with resistance test vector plasmid DNA and the envelope expression vector. Transfections were performed using a calcium-phosphate precipitation procedure. The cell culture media containing the DNA precipitate was replaced with fresh medium, from one to 24 hours, after transfection. Cell culture media containing resistance test vector viral particles was harvested one to four days after transfection and was passed through a […] filter before being stored at −80° C. HIV capsid protein (p24) levels in the harvested cell culture media were determined by an EIA method as described by the manufacturer (SIAC; Frederick, Md.). Before infection, target cells (293 and 293/T) were plated in cell culture media. Control infections were performed using cell culture media from mock transfections (no DNA) or transfections containing the resistance test vector plasmid DNA without the envelope expression plasmid. One to three or more days after infection the media was removed and cell lysis buffer (Promega) was added to each well. […] The inhibitory effect of the drug was determined using the following equation: […]
where RLUluc [drug] is the relative light unit of luciferase activity in infected cells in the presence of drug and RLUluc is the Relative Light Unit of luciferase activity in infected cells in the absence of drug. IC50 values were obtained from the sigmoidal curves that were generated from the data by plotting the percent inhibition of luciferase activity vs. the log10 drug concentration.
The K101E and G190S mutations were introduced alone and in combination into resistance test vectors using the mega-primer method for site-directed mutagenesis (Sakar and Sommar, Ibid.). Resistance test vectors containing the K101E mutation (K101E-RTV), the G190S mutation (G190S-RTV) were then tested using the phenotypic assay described earlier and the results were compared to those determined using a genetically defined resistance test vector that was wild type at positions 101 and 190.

[3] = tested on: RTV-652 (patient sample 98-652); conditions: values <1 = increased susceptibility
Excerpt: as §3, with “drug.” for “drug. The amount of luciferase activity produced in infected target host cells in the presence of drug was compared to the amount of luciferase produced in infected target host cells in the absence of drug.”
as §4
An IC50 was determined for the resistance test vector pool for each drug tested.

[4] = tested on: L100I-RTV (HIV reverse transcriptase L100I); assay: Phenotypic susceptibility assay, L100I-RTV; conditions: site directed mutant
Excerpt: as §5
as §4, with “vector. Transfections were performed using a calcium-phosphate precipitation procedure.” for “vector.”
The mutations Y188L, L100I and K103N were introduced alone and in combinationn into resistance test vectors using the mega-primer method for site-directed mutagenesis (Sakar and Sommar, Ibid.). […] We determined the pattern of phenotypic susceptibility to the NNRTIs, delavirdine, nevlrapine and efavirenz, in all 6 vectors.

[5] = tested on: P236L-RTV (HIV reverse transcriptase P236L); assay: Phenotypic susceptibility assay, P236L-RTV; conditions: P236L mutation alone
Experimental: as §1, §2
Resistance test vectors were constructed containing the P236L mutation alone and in combination with other known drug resistance mutations (K103N, Y181C) that are known to modulate the susceptibility of HIV-1 to NNRTIs. […] The P236L mutation was also introduced into a RTV containing mutations at K103N, Y181C or both (K103N+Y181C).

[6] = values <1 = increased susceptibility

Row | Compound | fold decrease in susceptibility (IC50) [1] [fold] | fold loss of susceptibility compared to wild type control RTV (E138A-Y188L-RTV) | fold decrease in susceptibility (IC50) [2] | fold change in susceptibility compared to wild type control RTV (K101E-G190S-RTV) | fold change in susceptibility compared to wild type control RTV (K101E-G190S-RTV; [6]) [fold] | fold change in susceptibility (IC50) [3] [fold] | fold loss of susceptibility compared to wild type control RTV [4] [fold] | change in susceptibility compared to wild type reference RTV [5]
1 | CC(C)Nc1cccnc1N1CCN(C(=O)c2cc3cc(NS(C)(=O)=O)ccc3[nH]2)CC1 [delavirdine] | 10 | 75 fold | 1.5 fold | 1.4 fold | 0.5 | 0.97 | 30 | less susceptible to delavirdine than a wild type reference RTV
2 | O=C1Nc2ccc(Cl)cc2[C@@](C#CC2CC2)(C(F)(F)F)O1 [efavirenz] | – | 88 fold | 900 fold | greater than 250 fold | 7.6 | – | 10 | –
3 | Cc1ccnc2c1NC(=O)c1cccnc1N2C1CC1 [nevirapine] | 750 | greater than 800 fold | greater than 800 fold | greater than 800 fold | 75 | 5 | 3 | no significant change in nevirapine susceptibility
